Literature values, collected in patent US7781642B2, “Animal model having a chimeric human liver and susceptible to human hepatitis C virus infection” (KMT Hepatech, Inc., priority 2000, dated 2010).

Assays:
HBV = settings: post needle-stick exposure; cited from earlier work
HCV = HCV patients; cited from earlier work

Row | Substance | Cases in which transmission of HBV was prevented (HBV) | Sustained response rate (HCV)
1 | Hepatitis B Immunoglobulin [HBIg] | 80% | –
2 | interferon and ribavirin | – | up to 40%
